Assay results reported in ChEMBL document CHEMBL3525973, “Quantitative prediction of human intestinal glucuronidation effects on intestinal availability of UDP-glucuronosyltransferase substrates using in vitro data” (Drug Metab Dispos, 2012).

Experiments:
[1] = biological target: T1, UDP-glucuronosyltransferase 1A8 (Homo sapiens, UniProt Q9HAW9); assay: Activity of human UGT1A8 expressed in insect cells assessed as reduction in compound level after 30 mins; format: ADME; conditions: 0.5 h
T1 sequence (Q9HAW9 whole entry): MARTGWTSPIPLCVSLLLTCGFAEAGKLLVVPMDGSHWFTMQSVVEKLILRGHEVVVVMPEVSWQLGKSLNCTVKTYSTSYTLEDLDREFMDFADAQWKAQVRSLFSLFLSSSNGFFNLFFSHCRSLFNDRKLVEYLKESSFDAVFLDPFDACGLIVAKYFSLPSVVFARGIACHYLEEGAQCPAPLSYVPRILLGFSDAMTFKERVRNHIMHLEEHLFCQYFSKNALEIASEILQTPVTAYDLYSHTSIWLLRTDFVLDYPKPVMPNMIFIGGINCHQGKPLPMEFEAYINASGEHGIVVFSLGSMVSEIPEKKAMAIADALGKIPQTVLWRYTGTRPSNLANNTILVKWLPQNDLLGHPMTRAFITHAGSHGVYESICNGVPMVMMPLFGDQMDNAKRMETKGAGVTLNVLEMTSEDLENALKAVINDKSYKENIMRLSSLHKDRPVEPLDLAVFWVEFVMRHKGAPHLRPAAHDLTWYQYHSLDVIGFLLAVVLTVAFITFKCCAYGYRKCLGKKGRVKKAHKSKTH

[2] = Unbound intrinsic clearance in human intestinal microsomes assessed CYP450-mediated glucuronidation clearance
[3] = Unbound fraction during UGT-mediated glucuronidation in human intestinal microsomes
[4] = Apparent permeability by PAMPA method
[5] = biological target: T2, UDP-glucuronosyltransferase 1A10 (Homo sapiens, UniProt Q9HAW8); assay: Activity of human UGT1A10 expressed in insect cells assessed as reduction in compound level after 30 mins; format: ADME; conditions: 0.5 h
T2 sequence (Q9HAW8 whole entry): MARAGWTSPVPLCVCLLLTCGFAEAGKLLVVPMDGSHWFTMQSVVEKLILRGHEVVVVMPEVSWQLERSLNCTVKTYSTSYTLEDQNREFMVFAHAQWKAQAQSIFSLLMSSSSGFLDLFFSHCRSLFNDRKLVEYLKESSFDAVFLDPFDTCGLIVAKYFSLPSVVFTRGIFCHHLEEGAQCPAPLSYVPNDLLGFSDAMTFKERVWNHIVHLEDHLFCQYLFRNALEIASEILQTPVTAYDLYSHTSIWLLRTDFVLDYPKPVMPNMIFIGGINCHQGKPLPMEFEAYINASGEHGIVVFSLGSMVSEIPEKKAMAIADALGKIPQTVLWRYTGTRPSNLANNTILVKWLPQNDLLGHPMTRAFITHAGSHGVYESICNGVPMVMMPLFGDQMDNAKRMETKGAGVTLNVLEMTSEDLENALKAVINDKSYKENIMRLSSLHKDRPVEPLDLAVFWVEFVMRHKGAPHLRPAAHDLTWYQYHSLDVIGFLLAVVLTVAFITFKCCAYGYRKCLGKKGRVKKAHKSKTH

[6] = Intrinsic clearance in human intestinal microsomes assessed CYP450-mediated glucuronidation clearance
[7] = Unbound intrinsic clearance in human intestinal microsomes assessed UGT-mediated glucuronidation clearance
[8] = Unbound fraction during CYP4500-mediated metabolism in human intestinal microsomes
[9] = Intrinsic clearance in human intestinal microsomes assessed UGT-mediated glucuronidation clearance
[10] = biological target: T3, UDP-glucuronosyltransferase 2B7 (Homo sapiens, UniProt P16662); assay: Activity of human UGT2B7 expressed in insect cells assessed as reduction in compound level after 30 mins; format: ADME; conditions: 0.5 h
T3 sequence (P16662 whole entry): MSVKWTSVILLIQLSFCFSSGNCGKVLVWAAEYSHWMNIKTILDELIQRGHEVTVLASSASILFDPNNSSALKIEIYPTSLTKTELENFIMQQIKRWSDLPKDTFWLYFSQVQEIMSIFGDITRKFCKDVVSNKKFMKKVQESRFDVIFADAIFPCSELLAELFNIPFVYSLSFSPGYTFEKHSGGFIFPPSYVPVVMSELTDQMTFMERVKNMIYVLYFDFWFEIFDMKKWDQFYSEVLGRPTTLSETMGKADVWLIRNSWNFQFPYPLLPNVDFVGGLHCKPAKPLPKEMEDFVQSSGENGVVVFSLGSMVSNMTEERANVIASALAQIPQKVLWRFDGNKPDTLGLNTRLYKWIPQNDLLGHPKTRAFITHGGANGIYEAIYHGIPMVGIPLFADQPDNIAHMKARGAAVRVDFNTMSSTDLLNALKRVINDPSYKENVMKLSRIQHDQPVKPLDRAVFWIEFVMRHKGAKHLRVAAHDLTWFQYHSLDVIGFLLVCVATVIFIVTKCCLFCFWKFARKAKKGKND

[11] = biological target: T4, UDP-glucuronosyltransferase 1A9 (Homo sapiens, UniProt O60656); assay: Activity of human UGT1A9 expressed in insect cells assessed as reduction in compound level after 30 mins; format: ADME; conditions: 0.5 h
T4 sequence (O60656 whole entry): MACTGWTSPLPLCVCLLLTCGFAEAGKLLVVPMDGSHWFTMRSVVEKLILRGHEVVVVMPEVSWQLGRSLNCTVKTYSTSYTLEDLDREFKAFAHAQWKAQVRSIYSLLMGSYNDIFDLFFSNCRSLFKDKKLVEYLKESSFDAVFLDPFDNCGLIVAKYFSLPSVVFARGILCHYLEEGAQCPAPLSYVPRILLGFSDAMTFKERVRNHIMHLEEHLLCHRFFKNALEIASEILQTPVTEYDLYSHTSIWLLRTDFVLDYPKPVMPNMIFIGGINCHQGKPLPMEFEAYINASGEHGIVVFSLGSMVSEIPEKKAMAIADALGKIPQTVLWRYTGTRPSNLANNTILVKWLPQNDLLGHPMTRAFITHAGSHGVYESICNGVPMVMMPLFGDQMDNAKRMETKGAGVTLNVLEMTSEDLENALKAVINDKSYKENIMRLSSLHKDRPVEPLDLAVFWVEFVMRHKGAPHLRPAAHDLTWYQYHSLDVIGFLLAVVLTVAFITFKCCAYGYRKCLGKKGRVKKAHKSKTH

clinical [12] = conditions: human, in vivo
in vitro = conditions: human, blood and plasma
Description: Ratio of drug level in blood to plasma in human

clinical [13] = conditions: human, in vivo, po
[14] = Oral bioavailability in human; format: ADME, organism-based; conditions: in vivo
clinical [15] = conditions: human, in vivo; remark: listed apart in the source
[16] = biological target: T5, UDP-glucuronosyltransferase 1A1 (Homo sapiens, UniProt P22309); assay: Activity of human UGT1A1 expressed in insect cells assessed as reduction in compound level after 30 mins; format: ADME; conditions: 0.5 h
T5 sequence (P22309 whole entry): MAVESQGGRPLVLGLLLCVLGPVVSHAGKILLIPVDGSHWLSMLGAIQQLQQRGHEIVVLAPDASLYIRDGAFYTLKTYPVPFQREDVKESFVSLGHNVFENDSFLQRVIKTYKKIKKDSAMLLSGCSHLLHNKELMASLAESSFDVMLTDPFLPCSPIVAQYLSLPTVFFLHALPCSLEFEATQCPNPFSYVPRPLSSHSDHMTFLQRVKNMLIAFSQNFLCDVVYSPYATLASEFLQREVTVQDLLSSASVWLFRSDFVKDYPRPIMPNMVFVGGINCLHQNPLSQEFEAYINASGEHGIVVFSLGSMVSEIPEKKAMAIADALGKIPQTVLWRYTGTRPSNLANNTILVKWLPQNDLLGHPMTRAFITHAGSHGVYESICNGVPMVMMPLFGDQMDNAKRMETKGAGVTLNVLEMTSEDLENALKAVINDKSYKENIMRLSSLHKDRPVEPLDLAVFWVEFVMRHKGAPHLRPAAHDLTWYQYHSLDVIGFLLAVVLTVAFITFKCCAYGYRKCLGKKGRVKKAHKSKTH

[17] = Drug absorption in po dosed human; format: ADME, organism-based; conditions: in vivo, read-out: Drug absorption
[18] = biological target: T6, UDP-glucuronosyltransferase 1A3 (Homo sapiens, UniProt P35503); assay: Activity of human UGT1A3 expressed in insect cells assessed as reduction in compound level after 30 mins; format: ADME; conditions: 0.5 h
T6 sequence (P35503 whole entry): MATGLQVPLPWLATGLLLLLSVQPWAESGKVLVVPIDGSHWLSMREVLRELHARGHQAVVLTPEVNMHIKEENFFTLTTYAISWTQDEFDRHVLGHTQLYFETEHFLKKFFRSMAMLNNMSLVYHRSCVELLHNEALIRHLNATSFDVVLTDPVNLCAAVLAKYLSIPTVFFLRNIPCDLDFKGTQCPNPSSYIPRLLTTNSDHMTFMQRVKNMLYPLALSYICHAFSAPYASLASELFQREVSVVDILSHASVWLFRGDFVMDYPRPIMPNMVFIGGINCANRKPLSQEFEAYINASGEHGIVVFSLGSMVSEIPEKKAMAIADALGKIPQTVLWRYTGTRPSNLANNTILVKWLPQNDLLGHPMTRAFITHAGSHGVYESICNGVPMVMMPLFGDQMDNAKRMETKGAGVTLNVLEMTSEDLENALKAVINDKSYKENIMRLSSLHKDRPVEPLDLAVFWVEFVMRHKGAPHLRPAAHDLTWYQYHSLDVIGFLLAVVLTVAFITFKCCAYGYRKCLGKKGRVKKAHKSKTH

Row | Structure (SMILES) | fraction unbound ([3]; intestinal microsomes) | Papp [4] [×10⁻⁶ cm/s] | CL free [7] [µL/min/mg] | fraction unbound ([3]; microsomes) | Drug metabolism [11] | blood plasma ratio (in vitro) | microsomal CLint ([9]; intestinal microsomes) [µL/min/mg] | further results
1 | O=C(c1ccc(OCCN2CCCCC2)cc1)c1c(-c2ccc(O)cc2)sc2cc(O)ccc12 [RALOXIFENE] | 0.98 | 3 | 2224 | – | – | – | – | Drug metabolism [1]: metabolite_detected; CL free [2]: 20.7 µL/min/mg; Drug metabolism [5]: metabolite_detected; microsomal CLint ([6]; intestinal microsomes): 8.9 µL/min/mg; fraction unbound [8]: 0.43; CL ([9]; microsomes): 2180 µL/min/mg
2 | O=C(O)Cc1ccccc1Nc1c(Cl)cccc1Cl [DICLOFENAC] | – | – | 62.7 | 0.94 | – | – | – | CL free [2]: metabolite_not_detected; CL ([6]; microsomes): metabolite_not_detected; Drug metabolism [10]: metabolite_detected; microsomal CLint ([9]; microsomes): 59 µL/min/mg
3 | CCc1cccc2c3c([nH]c12)C(CC)(CC(=O)O)OCC3 (configuration not stated) [ETODOLAC] | – | 23 | 5.7 | – | metabolite_detected | 0.55 | 6.2 | clearance (clinical [12]): 0.66 mL/min/kg; CL/F (clinical [13]): 0.82 mL/min/kg; bioavailability [14]: 80%
4 | COc1ccc2c(c1)c(CC(=O)O)c(C)n2C(=O)c1ccc(Cl)cc1 [INDOMETHACIN] | – | 22 | 5.2 | 0.8 | metabolite_detected | 0.55 | 4.2 | clearance (clinical [12]): 1.4 mL/min/kg; CL renal (clinical [15]): 0.21 mL/min/kg
5 | CCCc1nc2c(C)cc(-c3nc4ccccc4n3C)cc2n1Cc1ccc(-c2ccccc2C(=O)O)cc1 | – | > 30 | 21.7 | 0.92 | – | 0.67 | 20 | –
6 | Cc1ccc(C(=O)c2cc(O)c(O)c([N+](=O)[O-])c2)cc1 [TOLCAPONE] | 0.39 | 18 | 103 | – | metabolite_detected | 0.61 | 40 | –
7 | Cc1c(-c2ccc(O)cc2)n(Cc2ccc(OCCN3CCCCCC3)cc2)c2ccc(O)cc12 [BAZEDOXIFENE] | – | 20 | – | – | – | – | – | Drug metabolism [1]: metabolite_detected; Drug metabolism [16]: metabolite_detected; Drug metabolism [5]: metabolite_detected; bioavailability [14]: 6.2%
8 | O=c1c(O)c(-c2ccc(O)c(O)c2)oc2cc(O)cc(O)c12 [QUERCETIN] | 0.9 | < 1.5 | 5133 | – | – | 1 | 4620 | Fa [17]: 65%; Drug metabolism [16]: metabolite_detected; Drug metabolism [18]: metabolite_detected; CL/F (clinical [13]): 8330 mL/min/kg
9 | Cc1ncc2n1-c1ccc(Cl)cc1C(c1ccccc1F)=NC2 [MIDAZOLAM] | – | – | – | – | – | – | – | microsomal CLint ([6]; microsomes): 153 µL/min/mg
10 | CCN(CC)C(=O)/C(C#N)=C/c1cc(O)c(O)c([N+](=O)[O-])c1 [ENTACAPONE] | 1 | 4.1 | 27 | – | – | 0.59 | 27 | –
